Experimental data from patent publication US8053439B2, “Benzophenone derivatives useful for inhibiting formation of microtubule” (Chong Kun Dang Pharmaceutical Corp., priority 2006, dated 2011).
Where two headings read alike, the source gives them in different places.

Test system: HL60 cells
Experiment: Inhibition effect of HL60 cell line growth (MTT, 3 days)
Assay type: cell-based
Details: Homo sapiens, HL-60, 72 h, read-out: HL60 Growth Inhibition
Method: 1. Inhibition Effect of HL60 Cell Line Growth
A 10% FBS-contained RPMI1640 badge was used for culturing HL60 cells. The test substance was prepared by dissolving in DMSO to a concentration of 10 mg/ml, and continuously diluting with PBS to a final concentration of 100 μg/ml to 0.03 μg/ml. In a 96-well microplate, 180 μl of the badge containing 6.0×10^4 cells/ml of cells and 20 μl of continuously diluted test substance were added. The mixture was cultured at 37° C. with 5% CO2 atmosphere for 3 days. After completion of the cultivation, 50 μl of a solution of 1.25 mg/ml MTT (3-(4,5-dimethylthiazol-2-yl)-2,5-diphenyltetrazolium bromide) dissolved in PBS was added to all wells, and the resulting mixture was reacted at 37° C. for 3 hours. Thus formed formazan crystals were dissolved in 150 μl of DMSO, and an absorbance was measured at 570 nm.

[1] = HL60 cells, 3 days culture, MTT, absorbance 570 nm

Structure (SMILES)	IC50 [nM]	IC50 [1] [nM]
COc1ccc(-c2cccnc2)cc1C(=O)c1cc(OC)c(OC)c(OC)c1 [Compound 200, (2-methoxy-5-(pyridin-3-yl)phenyl)(3,4,5-trimethoxyphenyl)methanone]	130	
COc1ccc(-c2ccco2)cc1C(=O)c1cc(OC)c(OC)c(OC)c1 [Compound 203, (5-(furan-2-yl)-2-methoxyphenyl)(3,4,5-trimethoxyphenyl)methanone]		35
COc1cc(C(=O)c2cc(-c3ccco3)cc(OC)c2OC)cc(OC)c1OC [Compound 206, (5-(furan-2-yl)-2,3-dimethoxyphenyl)(3,4,5-trimethoxyphenyl)methanone]	145	
COc1ccc(-c2ccc(OC)c(C(=O)c3cc(OC)c(OC)c(OC)c3)c2)cc1 [Compound 213, (4,4′-dimethoxybiphenyl-3-yl)(3,4,5-trimethoxyphenyl)methanone]		137
COc1cc(C(=O)c2cc(-c3ccco3)ccc2[N+](=O)[O-])cc(OC)c1OC [Compound 224, (5-(furan-2-yl)-2-nitrophenyl)(3,4,5-trimethoxyphenyl) methanone]		110
COc1cc(C(=O)c2cc(-c3ccco3)ccc2N)cc(OC)c1OC [Compound 225, (2-amino-5-(furan-2-yl)phenyl)(3,4,5-trimethoxyphenyl)methanone]		58
COc1ccc(-c2ccc(N)c(C(=O)c3cc(OC)c(OC)c(OC)c3)c2)cc1 [Compound 226, (4-amino-4′-methoxybiphenyl-3-yl)(3,4,5-trimethoxyphenyl)methanone]	370	
COc1cc(C(=O)c2cc(-c3ccco3)ccc2NC(C)=O)cc(OC)c1OC [Compound 231, N-(4-(furan-2-yl)-2-(3,4,5-trimethoxybenzoyl)phenyl)acetamide]		120
COc1cc(C(=O)c2cc(-c3ccco3)ccc2NS(C)(=O)=O)cc(OC)c1OC [Compound 235, N-(4-(furan-2-yl)-2-(3,4,5-trimethoxybenzoyl)phenyl)methanesulfonamide]		280
COc1cc(C(=O)c2cc(-c3ccco3)ccc2NC(=O)CN)cc(OC)c1OC [Compound 237, 2-amino-N-(4-(furan-2-yl)-2-(3,4,5-trimethoxybenzoyl)phenyl)acetamide]		270
C=CCNc1ccc(-c2ccco2)cc1C(=O)c1cc(OC)c(OC)c(OC)c1 [Compound 238, (2-(allylamino)-5-(furan-2-yl)phenyl)(3,4,5-trimethoxyphenyl)methanone]		340
COc1cc(C(=O)c2cc(-c3ccco3)ccc2OS(C)(=O)=O)cc(OC)c1OC [Compound 241, methanesulfonic acid 4-(furan-2-yl)-2-(3,4,5-trimethoxybenzoyl)phenyl]		90
COc1ccc(-c2ccco2)cc1C(=O)c1cc(CO)c(OC)c(OC)c1 [Compound 249, (5-(furan-2-yl)-2-methoxyphenyl)(3-(hydroxymethyl)-4,5-dimethoxyphenyl)methanone]		120
COc1ccc(-c2ccco2)cc1C(=O)c1cc(C)c(OC)c(C)c1 [Compound 264, (5-(furan-2-yl)-2-methoxyphenyl)(4-methoxy-3,5-dimethylphenyl)methanone]		480
COCOc1c(C)cc(C(=O)c2cc(-c3ccco3)ccc2OC)cc1C [Compound 265, (5-(furan-2-yl)-2-methoxyphenyl)(4-(methoxymethoxy)-3,5-dimethylphenyl)methanone]		390
C=CCc1cc(C(=O)c2cc(-c3ccco3)ccc2OC)cc(OC)c1O [Compound 269, (3-allyl-4-hydroxy-5-methoxyphenyl)(5-(furan-2-yl)-2-methoxyphenyl)methanone]		1690
COc1cc(C(=O)c2ccc(-n3cncn3)cc2N)cc(OC)c1OC [Compound 272, (2-amino-4-(1H-1,2,4-triazol-1-yl)phenyl)(3,4,5-trimethoxyphenyl)methanone]		1340
COc1cc(C(=O)c2cc(-c3nccs3)ccc2NC(C)=O)cc(OC)c1OC [Compound 277, N-(4-(thiazol-2-yl)-2-(3,4,5-trimethoxybenzoyl)phenyl)acetamide]		110
COc1cc(C(=O)c2cc(-c3nccs3)ccc2N)cc(OC)c1OC [Compound 278, (2-amino-5-(thiazol-2-yl)phenyl)(3,4,5-trimethoxyphenyl)methanone]	30	
COc1cc(C(=O)c2cc(-c3cccs3)ccc2NC(C)=O)cc(OC)c1OC [Compound 279, N-(4-(thiophen-2-yl)-2-(3,4,5-trimethoxybenzoyl)phenyl)acetamide]		130
CNc1ccc(-c2ccco2)cc1C(=O)c1cc(OC)c(OC)c(OC)c1 [Compound 282, (5-(furan-2-yl)-2-(methylamino)phenyl)(3,4,5-trimethoxyphenyl)methanone]		150

Structure (SMILES)	IC50 [nM]	IC50 [1] [nM]
COc1cc(C(=O)c2cc(-c3cccs3)ccc2N)cc(OC)c1OC [Compound 283, (2-amino-5-(thiophen-2-yl)phenyl)(3,4,5-trimethoxyphenyl)methanone]		48
COc1cc(C(=O)c2cc(-c3nccs3)ccc2N)cc(CO)c1OC [Compound 286, (2-amino-5-(thiazol-2-yl)phenyl)(3-(hydroxymethyl)-4,5-dimethoxyphenyl)methanone]		70
COc1cc(C(=O)c2cc(-c3ncco3)ccc2N)cc(OC)c1OC [Compound 289, (2-amino-5-(oxazol-2-yl)phenyl)(3,4,5-trimethoxyphenyl)methanone]		7
COc1cc(C(=O)c2cc(-c3ccccn3)ccc2N)cc(OC)c1OC [Compound 293, (2-amino-5-(pyridin-2-yl)phenyl)(3,4,5-trimethoxyphenyl)methanone]		17
COc1cc(C(=O)c2cc(-c3ncco3)ccc2NC(C)=O)cc(OC)c1OC [Compound 296, N-(4-(oxazol-2-yl)-2-(3,4,5-trimethoxybenzoyl)phenyl)acetamide]		1230
COc1cc(C(=O)c2cc(-c3csc(N)n3)ccc2N)cc(OC)c1OC [Compound 297, (2-amino-5-(2-aminothiazol-4-yl)phenyl)(3,4,5-trimethoxyphenyl)methanone]		35
COc1cc(C(=O)c2cc(-c3csc(C)n3)ccc2N)cc(OC)c1OC [Compound 298, (2-amino-5-(2-methylthiazol-4-yl)phenyl)(3,4,5-trimethoxyphenyl)methanone]		160
COc1cc(C(=O)c2cc(-c3ccsc3)ccc2NC(C)=O)cc(OC)c1OC [Compound 300, N-(4-(thiophen-3-yl)-2-(3,4,5-trimethoxybenzoyl)phenyl)acetamide]		170
COc1cc(C(=O)c2cc(-c3ccsc3)ccc2N)cc(OC)c1OC [Compound 301, (2-amino-5-(thiophen-3-yl)phenyl)(3,4,5-trimethoxyphenyl)methanone]		80
COc1cc(C(=O)c2cc(-c3nccs3)ccc2NS(C)(=O)=O)cc(OC)c1OC [Compound 308, N-(4-(thiazol-2-yl)-2-(3,4,5-trimethoxybenzoyl)phenyl)methanesulfonamide]		190
COc1cc(C(=O)c2cc(-c3nccs3)ccc2NC=O)cc(OC)c1OC [Compound 316, N-(4-(thiazol-2-yl)-2-(3,4,5-trimethoxybenzoyl)phenyl)formamide]		140
COc1cc(C(=O)c2cc(-c3ccco3)ccc2-n2cncn2)cc(OC)c1OC [Compound 322, (5-(furan-2-yl)-2-(1H-1,2,4-triazol-1-yl)phenyl)(3,4,5-trimethoxyphenyl)methanone]		170
COc1cc(C(=O)c2cc(-c3ccco3)ccc2NCCO)cc(OC)c1OC [Compound 323, (5-(furan-2-yl)-2-(2-hydroxyethylamino)phenyl)(3,4,5-trimethoxyphenyl)methanone]		170
COc1cc(C(=O)c2cc(-c3ccco3)ccc2F)cc(OC)c1OC [Compound 327, (2-fluoro-5-(furan-2-yl)phenyl)(3,4,5-trimethoxyphenyl)methanone]		90
COc1cc(C(=O)c2cc(-c3ccccn3)ccc2NS(C)(=O)=O)cc(OC)c1OC [Compound 335, N-(4-(pyridin-2-yl)-2-(3,4,5-trimethoxybenzoyl)phenyl)methanesulfonamide]		220
COc1cc(C(=O)c2cc(-c3cccc(N)c3)ccc2N)cc(OC)c1OC [Compound 337, (4,5′-diaminophenyl-3-yl)(3,4,5-trimethoxyphenyl)methanone]		190
COc1cc(C(=O)c2cc(-c3ccco3)ccc2NCCCO)cc(OC)c1OC [Compound 341, (5-(furan-2-yl)-2-(3-hydroxypropylamino)phenyl)(3,4,5-trimethoxyphenyl)methanone]		110
COc1cc(C(=O)c2cc(-c3ccccn3)ccc2-n2cncn2)cc(OC)c1OC [Compound 346, (5-(pyridin-2-yl)-2-(1H-1,2,4-triazol-1-yl)phenyl)(3,4,5-trimethoxyphenyl)methanone]		100
COc1cc(C(=O)c2cc(-c3nccs3)ccc2-n2cncn2)cc(OC)c1OC [Compound 347, (5-(thiazol-2-yl)-2-(1H-1,2,4-triazol-1-yl)phenyl)(3,4,5-trimethoxyphenyl)methanone]		30
COc1cc(C(=O)c2cc(-c3nccs3)ccc2NCCCO)cc(OC)c1OC [Compound 348, (2-(3-hydroxypropylamino)-5-(thiazol-2-yl)phenyl)(3,4,5-trimethoxyphenyl)methanone]		100
COc1cc(C(=O)c2cc(-c3ccco3)ccc2-n2ccnc2)cc(OC)c1OC [Compound 354, (5-(furan-2-yl)-2-(1H-imidazol-1-yl)phenyl)(3,4,5-trimethoxyphenyl)methanone]		110
